In patent publication US6905852B1, “Herbicide-resistant protoporphyrinogen oxidase isolated from Nicotiana tabacum” (Nihon Nohyaku Co., Ltd., priority 1997, dated 2005):
In brackets after ≈: the same amount, converted by molar mass.

Key:
ETR-245 = assay: MIC on MS agar medium, cross-resistance to herbicides; assay type: cell-based, Nicotiana tabacum
Description: (§1) Further, cross-resistance of a resistant strain tolerant to herbicides with various modes of action was examined. Sensitivity to fomesafen (trade mark: FLEX) and oxadiazon (trade mark: RONSTAR), which are photobleaching herbicide and accumulate protoporphyrin IX; pyrazoxyfen (trademark: PAICER) which is a chlorophyll synthesis inhibitor and causes bleaching; DPX-84 and bialaphos (trademark: BASTA) and glyphosate (trademark: ROUNDUP) which are an inhibitor of the amino acid synthesis; butachlor (trademark: MACHETE) which is a protein synthesis inhibitor; propanil (trademark: STAM) which is an inhibitor of light synthesis photochemical system II and paraquat (trademark: PREEGLOX) which is an inhibitor of photosystem I and produces an active oxygen was compared. Into MS agar medium containing each herbicides, each resistant strain was transplanted and minimum inhibition concentration (MIC) was measured. […] From the above results, ETR-056 was thought to have resistance to an active oxygen caused by overproduction of superoxide dismutase, and ETR-253 was thought to have resistance to many herbicides caused by decreasing of a membrane permeability, and ETR-245 was thought to have resistance caused by mutation of a target enzyme or overproduction of a target enzyme.
(§2) MIC of compound A to the sensitive cell lines, ETR-056, ETR-245 and ETR-253 were measured.

Sensitive strain = assay: as above; assay type: cell-based, Nicotiana tabacum; conditions: sensitive cell line
Description: as §1, §2

ETR-253 = assay: as above; assay type: cell-based, Nicotiana tabacum
Description: as §1, §2

ETR-056 = assay: as above; assay type: cell-based, Nicotiana tabacum
Description: as §1, §2

[1] = tested on: transformed tobacco plant, Arabidopsis thaliana resistant type (pBI-AtPX-RC); assay: Leaf disk method, bleaching; assay type: cell-based, N. Tabacum var. SR1
Description: (§3) The A. tumefacience having the binary vector which had been stored at −80° C. was cultured with shaking at 27° C. for 24 hours in 523 liquid medium (1% sucrose, 0.8% Bacto-tryptone, 0.4% Bacto-yeast extract, 0.2% K2HPO4, 0.03% MgSO4.7H2O) containing kanamycin. A disk (9 mm diameter) of a tobacco (N. Tabacum var. SR1) leaf which had been surface sterilized was immersed for one minute into the culture of the A. tumefacience, and then the culture liquid attached thereon was removed with a sterilized paper towel. The leaf disk was transferred into MS agar medium containing 0.6% agar in which 2 ppm NAA and 0.2 ppm BA were added, with the reverse side of leaf being made upside, and incubated at 25° C. for 48 hours. The leaf disk was transferred into MS liquid medium containing 500 ppm carbenicillin, 200 ppm claforan, 2 ppm NAA and 0.2 ppm BA and cultured with shaking at 27° C. for 48-72 hours to remove A. tumefacience. The leaf disk was transferred into MS liquid medium containing 0.6% agar, 100 ppm of carbenycillin, 200 ppm of claforan and 150 ppm of kanamycin, 2 ppm NAA and 0.2 ppm BA and incubated at 27° C. for 2-3 weeks and formation of shoot was induced. The shoot was transferred into medium for root development (½ MS, 0.02 ppm IBA, 1.5% sucrose, 0.2% gellan gum) and development of root was introduced. The young plant thus obtained was transferred into culture soil, and was grown in a green house.
(§4) From the transformed plant with which the confirmation of introduction of gene was finished, and non-transformed plant used as a control, a leaf almost the same position of the leaf was picked and 9 mm diameter leaf disks were prepared, and floated on a dish in which 0, 125, 250, 1,250, 2,500, 5,000, 12,500 nM of compound A aqueous solution were contained. After incubation at 27° C. for one week under continuous strong light, the bleaching of the leaf disks was observed, and the permissive concentration to compound A was calculated. As a result (Table 7), in case that the tolerant type of protoporphirinogen oxidase cDNA from tobacco was introduced by pBI-NtPX-RC, more than 100 times of tolerance was observed comparing to the control non-transformed plant. However, in case that rsistant type cDNA from Arabidopsis thaliana was introduced by pBI-AtPX-RC, 4 times of resistance was observed comparing to the control, and in case that the wild type cDNA was introduced, high resistance was not observed in each case.

[2] = tested on: transformed tobacco plant, Tobacco resistant type (pBI-NtPX-RC); assay: Leaf disk method, bleaching; assay type: cell-based, N. Tabacum var. SR1
Description: as §3, §4

[3] = tested on: transformed tobacco plant, Arabidopsis thaliana wild type (pBI-AtPX-HC); assay: Leaf disk method, bleaching; assay type: cell-based, N. Tabacum var. SR1
Description: as §3, §4

[4] = tested on: transformed tobacco plant, Tobacco wild type (pBI-NtPX-HC); assay: Leaf disk method, bleaching; assay type: cell-based, N. Tabacum var. SR1
Description: as §3, §4

In the case of CCOC(=O)COc1cc(-c2nn(C)c(OC(F)F)c2Cl)c(F)cc1Cl [Compound A, ethyl 2-chloro-5-(4-chloro-5-difluoromethoxy-1-methyl-1H-pyrazol-3-yl)-4-fluorophenoxyacetate], the MIC (ETR-245) is reported as “over 2,400 nM”, the MIC (Sensitive strain) is reported as 5 nM (≈ 2.07 ng/mL) and the MIC (ETR-253) is reported as “over 2,400 nM”. The MIC (ETR-056) was “over 2,400 nM”, the “Permission conc. to compound A” value ([1]; Arabidopsis thaliana resistant type (pBI-AtPX-RC)) was 500 nM and the Resistance ([1]; Arabidopsis thaliana resistant type, vs non-transformed) was 4 X. For the same molecule, the “Permission conc. to compound A” value [2] was >12,500 nM, the “Permission conc. to compound A” value ([3]; Arabidopsis thaliana Wild type (pBI-AtPX-HC)) was 250 nM and the Resistance ([3]; Arabidopsis thaliana Wild type, vs non-transformed) was 2 X. The “Permission conc. to compound A” value [4] was 500 nM and the Resistance ([4]; vs non-transformed) was 4 X.
